Consider one compound from patent US20240058344A1, “METHODS OF TREATING NEURODEGENERATIVE DISORDERS AND STAT3-LINKED CANCERS USING SUPPRESSORS OF ELECTRON LEAK” (Cornell University, priority 2020, published 2024).

The test system of one assay is tau. Briefly: Western blotting of phospho-tau and total tau in hippocampal tissue of hTauP301S mice. Type of assay: in vivo. The following applies: 6 weeks oral dosing. From the text: Levels of phospho-tau (FIG. 5A) and total tau (FIG. 5B) as measured by Western blotting in hippocampal tissue from male nontransgenic (NTG) and hTauP301S mice after 6 weeks of oral dosing with S3QEL2 or vehicle. n=3-6 mice per group. *p<0.05, **p<0.01, ***p<0.001, ANOVA with Dunnett's test.
As assessed by immunolabeling, hTauP301S mice treated with S3QEL2 also had reduced levels of glial fibrillary acidic protein (GFAP)-positive astrogliosis and phosphorylated tau (FIG. 7). Western blotting confirmed reduced levels of phosphorylated but not total tau in these mice (FIG. 5).

Assay [1] has as its system astrocytic-neuronal co-cultures. Briefly: Neuronal damage (NeuN) and neuronal firing (MEA) in astrocytic-neuronal co-cultures with AAV-TauP301S. Type of assay: cell-based, mouse. The following applies: 1 μM. Here is the method:
(FIG. 10A) Co-cultures were immunostained for NeuN following transduction with AAV encoding human P301S mutant tau. Vehicle (Veh) or S3QEL2 (S3, 1μM) was added on day 8 in vitro and cells were analyzed on day 14. (FIG. 10B) Example traces recorded using multi-electrode array (MEA). Spikes (black) and network bursts (pink boxes). Top traces show population activities. (FIG. 10C) Average neuronal firing (% of baseline) in co-cultures. Mock treatment (control) or AAV-TauP301S with or without S3QEL2 (S3, 1μM) were added on day 6. n=4 wells per condition, *p<0.05, ANOVA with Bonferroni's test.
To begin dissecting the mechanisms by which S3QEL2 affects neural cell function and disease-linked processes, studies in primary cultures were conducted. Isolated mouse-derived neurons were transduced with adeno-associated viral vectors (AAVs) encoding wild-type or the P301S mutant form of the human tau protein (FIG. 8A). […] However, S3QEL reduced neuronal damage in the presence of astrocytes (approx. 30% astrocytes, FIG. 10A). Tau can also promote aberrant neuronal activity and hypersynchrony. S3QEL reduced aberrant neuronal firing in tau-transduced neurons co-cultured with astrocytes (FIGS. 10B-10C).

The next assay relates to A-172 glioblastoma cells. Briefly: Glioblastoma cell proliferation, DAPI staining of cell nuclei, A-172. Type of assay: cell-based, human. The note with it: 72 h. Here is the method:
Cell density was measured using DAPI staining of cell nuclei and quantification of fluorescence intensities. n=3 wells per condition. […] STAT3 levels were measured by Western blotting. STAT3 levels were normalized to γ-tubulin levels within each cell lysate and expressed as fold change relative to U-87MG cells. n=4 wells per condition. **p<0.01, ***p<0.001 vs. 0 μM or U-87MG, one-way ANOVA with Dunnett's multiple comparisons test.
Briefly, two complementary methods were used to assess cell proliferation, including the CellTiter-Glo assay and DAPI staining of cell nuclei. The effects of S3QEL2 treatment on A-172, T98G, and U-87 MG cells were measured at different drug concentrations (0, 6, 20, 30, 40, or 50 μM) and time-points after treatment (72 or 96 hours). S3QEL2 inhibits proliferation of A-172 and T98G glioblastoma cells in a highly dose-dependent manner and these effects are similar at different time-points (FIG. 15A-B).

Another assay concerns primary astrocytes. Briefly: Intracellular ATP levels in primary astrocytes. Format: cell-based. From the text: Antimycin A and myxothiazol were used as positive controls to inhibit mitochondrial respiration and ATP production. n=3 wells per condition. ***p<0.001 vs. vehicle, mixed-effects model with Dunnett's multiple comparisons test.

On to `CCCN(CCC)c1ncnc2c1cnn2-c1ccc(C)c(C)c1` [S3QEL2], for which the “Phospho-tau levels (Western blotting)” value with tau is on record as “reduced”. The “Aberrant increases in neuronal firing (MEA) in astrocytic-neuronal co-cultures” value in assay [1] (added day 6) is “prevented”. Further, in assay [1] (added day 8, analyzed day 14), the “Neuronal damage (NeuN) in astrocytic-neuronal co-cultures” value is reported as “prevented neuronal damage”. Besides, in the assay with A-172 glioblastoma cells, the “Cell proliferation (cell density, DAPI staining)” value is “reduces proliferation”. For the same compound, the “Intracellular ATP levels” value in the assay on primary astrocytes is “do not affect intracellular ATP levels”.
